Laboratory results as given in US9284283B2, “Macrocyclic compounds for modulating IL-17” (ENSEMBLE THERAPEUTICS CORPORATION, priority 2012, dated 2016).

How the values were obtained:
IL17A = target: T1, IL17A (Homo sapiens, UniProt Q16552); experiment: Surface Plasmon Resonance (SPR) analysis of compound interactions with IL17A; conditions: SPR binding to IL17A
T1 sequence (Q16552 24-155): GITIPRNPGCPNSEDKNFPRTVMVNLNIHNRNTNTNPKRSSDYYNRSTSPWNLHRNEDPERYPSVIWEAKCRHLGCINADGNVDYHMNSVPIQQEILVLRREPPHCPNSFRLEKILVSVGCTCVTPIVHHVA
Method in brief: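 His-tagged IL17A captured on a Ni-NTA chip; five 2- or 3-fold compound dilutions from 50 μM injected for 180 s, 120 s dissociation, in HEPES-saline buffer with 0.5% DMSO. Baseline-subtracted sensorgrams fitted 1:1 for ka, kd and KD; Kd also derived from binding extent per concentration.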

[1] = test system: IL-17A induced secretion of IL-6 in primary human RASF cells; experiment: Inhibition of IL17A induced secretion of IL6 in human rheumatoid arthritis synovial fibroblast (RASF) cells; format: cell-based; conditions: Homo sapiens, Fibroblast
Method in brief: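 Primary RASF cells (passage 2-8) stimulated 20 h at 37 °C with rhIL-17A (30 ng/mL) pre-incubated 1 h with compound (final 0.03-25 μM, 0.25% DMSO). Supernatant IL-6 measured by ELISA, normalized to WST1 viability; triplicates.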

Compound	Kd (IL17A)	IC50 [1]
O=C1CNC(=O)[C@@H](Cc2ccc(NC(=O)[C@@H](NC(=O)Cc3ccccc3)C3CCCCC3)cc2)NC(=O)CC2(CCCC2)CC(=O)NCCCCCN1 [Compound 186]	< 100 nM	1000 to 10000 nM
O=C1CNC(=O)[C@@H](Cc2ccc(NC(=O)[C@H](Cc3ccc(Cl)cc3Cl)NC(=O)Cc3ccccc3)cc2)NC(=O)CC2(CCCC2)CC(=O)NCCCCCN1 [Compound 185]	< 100 nM	1000 to 10000 nM
COC(=O)[C@@H]1CCCCNC(=O)CNC(=O)[C@@H](Cc2ccc(NC(=O)[C@H](Cc3ccccc3Cl)NC(=O)Cc3ccccc3)cc2)NC(=O)CC2(CCCC2)CC(=O)N1 [Compound 143]	< 100 nM	1000 to 10000 nM
O=C1CNC(=O)[C@@H](Cc2ccc(NC(=O)[C@H](Cc3ccc(Cl)cc3Cl)NC(=O)Cc3ccc(O)cc3)cc2)NC(=O)CC2(CCCC2)CC(=O)NCCCCCN1 [Compound 191]	< 100 nM	1000 to 10000 nM
O=C1CNC(=O)[C@@H](Cc2ccc(NC(=O)[C@H](Cc3ccccc3Cl)NC(=O)Cc3ccccc3)cc2)NC(=O)CC2(CCCC2)CC(=O)NCCCCCN1 [Compound 159]	< 100 nM	1000 to 10000 nM
O=C1CNC(=O)[C@@H](Cc2ccc(NC(=O)[C@H](Cc3ccccc3Cl)NC(=O)c3cccnc3)cc2)NC(=O)CC2(CCCC2)CC(=O)NCCCCCN1 [Compound 194]	< 100 nM	100 to 1000 nM
COC(=O)[C@@H]1CCCCNC(=O)CNC(=O)[C@@H](Cc2ccc(NC(=O)[C@H](Cc3ccccc3Cl)NC(=O)c3ccccc3)cc2)NC(=O)CC2(CCCC2)CC(=O)N1 [Compound 144]	< 100 nM	1000 to 10000 nM
COC(=O)[C@@H]1CCCCNC(=O)CCCNC(=O)[C@@H](Cc2ccc(NC(=O)[C@H](Cc3ccccc3F)NC(=O)Cc3ccccc3)cc2)NC(=O)CC2(CCCC2)CC(=O)N1 [Compound 106]	100 to 1000 nM	> 10000 nM
O=C1CNC(=O)[C@@H](Cc2ccc(NC(=O)[C@H](Cc3ccccc3Cl)NC(=O)Cc3ccccn3)cc2)NC(=O)CC2(CCCC2)CC(=O)NCCCCCN1 [Compound 226]	< 100 nM	1000 to 10000 nM
